According to US7569213B2, “Immunotherapeutic agent” (Stanford Rook Limited, priority 2004, dated 2009):
Entries after “also recorded” stand apart in the source; their conditions may differ.

Test system: allergen challenged allergic mice
Test: Allergic pulmonary inflammation model (ovalbumin/alum sensitized mice, intratracheal ovalbumin challenge, BAL fluid analysis)
Type: in vivo, Balb/c female mice
Details: for total cellular infiltrate (cells recovered in the bronchoalveolar lavage fluid) / neutrophils and monocytes/macrophages at the site of inflammation (BAL fluid) / number of eosinophils recovered in the BAL fluid / IL-5 levels in the BAL fluid / IL-10 levels in the BAL fluid: ovalbumin/alum sensitized mice; for total cellular infiltrate (cells recovered in the bronchoalveolar lavage fluid): intratracheal ovalbumin challenge, compared to buffer-treated mice; for neutrophils and monocytes/macrophages at the site of inflammation (BAL fluid) / number of eosinophils recovered in the BAL fluid / IL-5 levels in the BAL fluid / IL-10 levels in the BAL fluid: ovalbumin challenge; for IL-5 levels in the BAL fluid / IL-10 levels in the BAL fluid: ELISA
Text: This model is used below to evaluate the effect of the compounds of the invention and to carry out comparative tests.
The prevention protocol is designed to determine the ability of treatment to prevent the development of symptoms of allergic pulmonary inflammation in subsequently sensitized mice. The therapeutic protocol is designed to determine the ability of treatment to cure symptoms of allergic pulmonary inflammation in sensitized mice.
In the prevention protocol Balb/c female mice (7-8 weeks of age, 17-20 g in weight) are treated with saline or buffer—0.001% FFA albumin in saline (as positive control) or lipid fractions of mycobacteria (taken form the sample deposited at the National Collection of Type Cultures under deposit number NCTC 11659). Three weeks after treatment all mice are sensitized intraperitoneally with 10 μg ovalbumin (OVA) and Alum (a 100 μl preparation of Alum supplied by Serva-Alu-Gel-S suspension). Sensitization is repeated after twelve days. On day 19, mice are intratracheally challenged with OVA (0.5 μg in 50 μl saline). Intratracheal antigenic challenge is repeated two days later. Twenty-four or 48 hours after the last challenge, the experiment is terminated.
In the therapeutic protocol mice are sensitized with OVA and Alum on day 0 and 12. On day 21, mice are treated as appropriate. Mice are resensitized on days 42 and 54. On days 61 and 63, mice are challenged intratracheally with OVA and the experiment terminated 24 or 48 hours later.
In some experiments, a small number of mice from the positive control group are challenged intratracheally with saline alone to determine the background level of cells infiltrating the lungs of sensitized mice in the absence of an allergic episode (negative control).
A number of end points are routinely assessed. Mice are bled by cardiac puncture and blood collected for serum analysis. The lungs are lavaged three times with 0.3 ml of sterile RPMI containing Penicillin/Streptomycin. The lavage fluid is collected and recovered cells are counted. Fifty or 100 μl of lavage fluid is used for a cytospin, which is stained (Wright-Giemsa stain), fixed in methanol and used for the morphological identification of specific cell populations of interest (eosinophils, neutrophils and monocytes/macrophages). The remaining fluid is spun down and the supernatant stored for cytokine measurement by ELISA. Spleens are pooled per treatment groups, a single cell suspension of splenocytes is obtained and placed in culture with OVA for specific antigenic stimulation and with anti-CD3 for polyclonal T cell stimulation. Supernatants are collected and stored for cytokine measurement by ELISA.

Compound	total cellular infiltrate (cells recovered in the bronchoalveolar lavage fluid)	neutrophils and monocytes/macrophages at the site of inflammation (BAL fluid)	number of eosinophils recovered in the BAL fluid	IL-5 levels in the BAL fluid	IL-10 levels in the BAL fluid	total cellular infiltrate in the lungs (single dose as low as 1 μg (doses tested 5 μg, 1 μg, 0.1 μg))
CCCCC/C=C\CCCCCCCCC(=O)OCC(COC(=O)CCCCCCCC/C=C\CCCCC)OC(=O)CCCCCCCC/C=C\CCCCC [SRP312t, tri-ester of 1,2,3-propanetriol and hexadecenoic acid (10Z)]	reduced the total cellular infiltrate; also recorded: greater reduction	did not result in neutrophilia or in an increase of monocytes or macrophages	significant reduction	reduced	increased	significantly reduce
CCCCC/C=C\CCCCCCCCC(=O)O [SRP312f, hexadecenoic acid (10Z)]		did not result in neutrophilia or in an increase of monocytes or macrophages	significant reduction	reduced	increased	
CCCCC=CCCCCCCCCCC(=O)OCC(COC(=O)CCCCCCCCCC=CCCCC)OC(=O)CCCCCCCCCC=CCCCC (stereo not drawn) [C16:1 11-12]	failed to reduce					
CCCCC/C=C/CCCCCCCCC(=O)O [C16:1 10-11 trans]	reduction in the cellular infiltrate					
